For the experiment, the system named is inflammation of the adult rat paw. The experiment in a line: carragheenin-induced inflammation of the adult rat paw (edema volume). Format: in vivo. Conditions: gavage, 1 mg/kg, from 4 hours onwards, persisting up to 5 hours. The procedure: These tests consist in inducing inflammation of the adult rat paw and monitoring the development of the edema by measuring the volume of the paw.
The experimental conditions were as follows: rats, weighing from 200 to 220 g, were treated by gavage, 18 hours and 1 hour before administering the inflammatory agent, with the NSAI product to be studied, which was or was not combined with ceramides and which was administered in a volume of 0.5 ml. Control groups were given an 0.9% solution of sodium chloride.
The inflammatory reaction is induced by subcutaneously injecting 0.1 ml of a suspension of carragheenin in physiological saline. The volume of the paw is measured, using a mercury plethysmograph, before the inflammation starts, 30 minutes after it has started, and then every hour up to the 6th hour, and then finally 24 hours afterwards. The changes in volume are measured in cm on a graduated scale.
The tests were carried out with ketoprofen lysine, which was administered at 1 and 3 mg/kg and which was or was not combined with 0.5% of ceramides, and with ketoprofen, which was administered at 1 mg/kg and which was or was not combined with 1% of ceramides.

Regarding `CC(C(=O)O)c1cccc(C(=O)c2ccccc2)c1` (stereo not shown) [ketoprofen], the “anti-inflammatory effect as compared with the control” value is listed as “significant as compared with the control”.

Values taken from US6056944A, “Pharmaceutical compositions for oral use including an NSAID and ceramides” (Synthelabo, priority 1995, dated 2000).
